Experiments:
Format in all cases: cell-based, Staphylococcus aureus
[1] = test system: S. aureus; assay: Microbicidal plate assay, pEPO formulations aged two minutes to ninety-six hours with H2O2 (Examples 8 and 9); conditions: 50 ug/mL pEPO, 20 mM additive; for microbicidal activity, Reaction 1 (aged two minutes): FIG. 9A; for microbicidal activity, Reaction 1 (aged two minutes) / microbicidal activity, Reaction 2 (aged twenty-four hours) / retention of microbicidal activity on ageing: 10 mM NaBr, 8.9 mM H2O2; for microbicidal activity, Reaction 2 (aged twenty-four hours): FIG. 9B; for retention of microbicidal activity on ageing: FIGS. 8A-8C, aged two minutes, twenty-four or ninety-six hours; for kill of the microbes added to aged formulations: aged for up to ninety-six hours before the addition of bacteria
[2] = test system: S. aureus; assay: Microbicidal plate assay, pEPO with amine additives, aged 0 or 5 minutes with H2O2 (Example 7); conditions: FIG. 7, 10 ug/mL pEPO, additive 3 mM, 2 mM NaBr; for microbicidal activity, Reaction 2 (aged 5 minutes with H2O2): 0.89 mM H2O2; for microbicidal activity, Reaction 1 (aged 0 min): 0.89 mM H2O2, one minute, 10^8 cfu/mL
[3] = test system: S. aureus; assay: Microbicidal plate assay, formulations aged 1 or 30 minutes before adding bacteria, with or without ethanolamine (Examples 5 and 6); conditions: FIG. 6 compared to FIG. 5
Description: S. aureus (10^9 cfu/mL, final concentration) was added and the reaction was incubated at room temperature for one minute. The reaction was stopped by plating. The plates were incubated overnight at 36° C.
The reactions described in Example 4 were repeated with Formulations F for plates 2-5 with the added condition that the formulations were incubated (aged) 1 or 30 minutes prior to adding the S. aureus bacteria. The reaction was incubated at room temperature for one minute after the addition of bacteria. An additional sample was added (100 μg/mL pEPO; 8.9 mM H2O2; 20 mM ethanolamine; and 20 mmM NaBr).
The reactions were carried out as described in Example 5.

[4] = test system: S. aureus; assay: Microbicidal plate assay, hydrogen peroxide/pEPO/ethanolamine versus neat hydrogen peroxide (Example 4)

For `NCC(N)=O` [glycinamide, Glycinamide, reference compound], the “microbicidal activity, Reaction 1 (aged two minutes)” value [1] was “show initial microbicidal activity” and the “microbicidal activity, Reaction 2 (aged twenty-four hours)” value [1] was “lose microbicidal activity after twenty-four hours”.
In the case of `N[C@@H](CO)C(=O)O` [serine, L-serine, reference compound], the “microbicidal activity, Reaction 2 (aged 5 minutes with H2O2)” value [2] is reported as “only formulations comprising pEPO and ethanolamine or diethanolamine maintained microbicidal activity” and the “microbicidal activity, Reaction 1 (aged 0 min)” value [2] is reported as “some microbicidal activity”.
With `NCCO` [ethanolamine] the “effect of ethanolamine on microbicidal activity” value [3] was “significantly enhances the microbicidal activity of pEPO/H2O2 compositions”, the “microbicidal activity, Reaction 2 (aged twenty-four hours)” value [1] was “retain microbicidal activity for twenty-four hours” and the “retention of microbicidal activity on ageing” value [1] was “retain microbicidal activity up to at least ninety-six hours”. For the same compound, the “kill of the microbes added to aged formulations” value [1] was “complete kill”, the “microbicidal activity, Reaction 2 (aged 5 minutes with H2O2)” value [2] was “maintained microbicidal activity” and the “microbicidal activity, Reaction 1 (aged 0 min)” value [2] was “some microbicidal activity”.
With `COC(=O)CN` [glycine methyl ester, Glycine methyl ester, reference compound] the “microbicidal activity, Reaction 1 (aged two minutes)” value [1] was “show initial microbicidal activity” and the “microbicidal activity, Reaction 2 (aged twenty-four hours)” value [1] was “lose microbicidal activity after twenty-four hours”.
For `NCCCO` [propanolamine], the “retention of microbicidal activity on ageing” value [1] was “retain microbicidal activity up to at least ninety-six hours” and the “kill of the microbes added to aged formulations” value [1] was “complete kill”.
In the case of `OO` [hydrogen peroxide], the “concentration of H2O2 effective to result in a complete kill (as low as)” value [4] is reported as 0.5 mM, the “killing the bacteria by neat hydrogen peroxide” value ([4]; 89 mM (0.3%), no pEPO, one minute) is reported as “ineffective in killing the bacteria” and the “kill of the bacteria” value ([4]; hydrogen peroxide 0.5 mM with the addition of pEPO, Plate 2) is reported as 100%.
With `OCCNCCO` [diethanolamine] the “microbicidal activity, Reaction 2 (aged 5 minutes with H2O2)” value [2] was “maintained microbicidal activity” and the “microbicidal activity, Reaction 1 (aged 0 min)” value [2] was “some microbicidal activity”.

From patent US20150196025A1, “BIOACTIVE HEME-HALOPEROXIDASE COMPOSITIONS AND METHODS OF THEIR USE” (Exoxemis, Inc., priority 2014, published 2015)
